Experimental data published in US20260033491A1, “FUNGAL SPORE FORMULATIONS INCLUDING CARRIER FLUIDS” (priority 2018, published 2026).

How the values were obtained:
[1] = system: Beauveria bassiana spores; assay: Spore viability (germination rate) of Beauveria bassiana spores dispersed in fluid and stored at 30° C.; type: cell-based; details: Beauveria bassiana spores in fluid; for spore viability [%] after 2 w (14 d) / spore viability [%] after 5 w (35 d): storage at 30° C.
Procedure: (§1) 1.5 g of Beauveria bassiana pure spore powder were transferred into a formulation vessel (IKA Type DT-20 mixing vessel with dispersion tool for Ultra Turrax) using a sterile spoon. 13.5 mL of fluid were added into the respective formulation vessel and dispersed using ultra turrax tube drive control for 1 min at 3000 rpm; change direction after 30 sec. After this 2.8 mL were transferred in four sample bottles (Wheaton Serum vial, Type I) leaving little headspace and closed tight using crimpneck caps (Macherey—Nagel type N 13) Afterwards all sample bottles were transferred to an incubator set at 30° C. and stored for a given time.
In regular intervals a sample was retrieved from the storage location and analyzed for spore viability. Therefore the original samples were thoroughly homogenized. Aliquots of 0.25 g or 250 μL of each sample are transferred into 50 mL falcon tubes. The tubes were filled up to 25 g using a sterile aqueous solution containing 2% Tween 80 and homogenized by vortexing to achieve the first dilution step (1:100 dilution). This dilution was used for further dilution and spotting on agar.
For these samples, an alternative dispersion/dilution method was applied where the oil phase is stripped from the spores first: 0.25 g or 250 μL of sample are weighted into a 2 mL Eppendorf tube, and 0.5 mL of 2% Tween 80 is added, and the mixture is transferred into an Eppendorf centrifuge where it is centrifuged for 1 min at 10.000 rpm. The supernatant (=upper oily phase) is discarded by using a pipette. […] 250 μL or 0.25 g of each sample are transferred into a sterile 50 mL Falcon tube. The tubes were filled up to 25 g using a sterile aqueous solution containing 2% Tween 80 and homogenized by vortexing to achieve the first dilution step (1:100 dilution). This dilution is used for further dilution and spotting on agar.
(§2) For evaluation of spore germination rate prepare a 1:15000 dilution based on the 1:100 dilution achieved by multiple automated dilution (pipetting robot, 96 well plate). Afterwards 12×12 cm agar plates are taken and spotted with 10 times 5 μL of each sample using an automated 12-Channel pipet. Wait until liquid is soaked up by agar and transfer agar plate to an incubator and incubate at 20° C. for 17 hours. Open the plate and place it under the microscope. Randomly chose one area per spot and record the number of germinated and non-germinated spores that are within the designated field. At least 200 spores per sample need to be evaluated. If needed count more than one field per spot.

[2] = system: I. fumosorosea spores; assay: Spore viability (germination rate) of Isaria fumosorosea spores dispersed in fluid and stored at 30° C.; type: cell-based; details: I. fumosorosea spores in fluid; for spore viability [%] after 1 m (27 d) / spore viability [%] after 7 m (210 d): storage at 30° C.
Procedure: as §1, with “I. fumosorosea” for “Beauveria bassiana”
In regular intervals a sample was retrieved from the storage location and analyzed for spore viability. Therefore the original samples were thoroughly homogenized. Aliquots of 0.25 g or 250 μL of each sample were transferred into 50 mL falcon tubes. The tubes were filled up to 25 g using a sterile aqueous solution containing 2% Tween 80 and homogenized by vortexing to achieve the first dilution step (1:100 dilution). This dilution was used for further dilution and spotting on agar.
Not all samples mixed well or mixed at all in 2% Tween 80. For these samples, an alternative dispersion/dilution method was applied where the oil phase is stripped from the spores first: 0.25 g or 250 μL of sample were weighted into a 2 mL Eppendorf tube, and 0.5 mL of 2% Tween 80 was added, and the mixture was transferred into an Eppendorf centrifuge where it was centrifuged for 1 min at 10.000 rpm. The supernatant (=upper oily phase) was discarded by using a pipette. Afterwards 250 μL of Breakthru S 240 were added and the spores were well dispersed. 250 μL or 0.25 g of each sample were transferred into a sterile 50 mL Falcon tube. The tubes were filled up to 25 g using a sterile aqueous solution containing 2% Tween 80 and homogenized by vortexing to achieve the first dilution step (1:100 dilution). This dilution was used for further dilution and spotting on agar.
as §2, with “23°” for “20°”, “16” for “17”

CCCCOC(=O)CCCCC(=O)OCCCC [Adimoll DB, di-n-Butyl adipate]
spore viability [%] at day 1 [1]: 87%
spore viability [%] after 2 w (14 d) [1]: 66.1%
spore viability [%] after 5 w (35 d) [1]: 37.7%
spore viability [%] at day 1 [2]: 89.5%
spore viability [%] after 1 m (27 d) [2]: 66.6%
spore viability [%] after 7 m (210 d) [2]: 60.0%

CC(=O)OCC(COC(C)=O)OC(C)=O [Triacetin, Glycerin triacetate]
spore viability [%] at day 1 [1]: 89.3%
spore viability [%] after 2 w (14 d) [1]: 58.6%
spore viability [%] after 5 w (35 d) [1]: 31.6%
spore viability [%] at day 1 [2]: 90%
spore viability [%] after 1 m (27 d) [2]: 84.0%
spore viability [%] after 7 m (210 d) [2]: 69.1%
